Experimental data reported in patent US20060128708A1, “Antagonizing an adenosine A2A receptor to ameliorate one or more components of addictive behavior” (priority 2004, published 2006).
≈ marks a conversion by molar mass, not a printed value. Entries after “also recorded” stand apart in the source; their conditions may differ.

Tests used:
Male Long Evans rats = assay: Ethanol operant self-administration in rats (30 min FR3 session, 10% EtOH); format: in vivo, rat
Method: Separate groups of rats were given the D2 antagonist eticlopride (0.005, 0.007, 0.01 mg/kg), the A2A antagonist DMPX (1, 3, 5, 7, 10 and 20 mg/kg) and the Al antagonist DPCPX (0.125, 0.25, 0.5 mg/kg) by systemic injections.
Male Long Evans rats (Harlan, Indianapolis, Ind.) weighing approximately 250 g at the beginning of the studies, were individually housed with food and water available ad libitum except when stated otherwise. They were maintained on a 12 h light/dark cycle, lights on at 7:00 am. Operant training occurred between 8:30 am and 2:00 pm. The experimental procedures were approved in advance by our Institutional Animal Care and Use Committee.
(§1) EtOH dilution (10% v/v) for self-administration was made up using 95% ethyl alcohol and tap water. Sucrose (Saccharose, Fisher Scientific, Fair Lawn, N.J., USA) solution (10% w/v) was made up with tap water. All the compounds tested were obtained from Sigma Chemical Co. (St. Louis, Mo.). The A2A antagonist DMPX (3,7-Dimethyl-1-propargylxanthine) was dissolved in warm saline. The A1 antagonist DPCPX (8-Cyclopentyl-1,3-dipropylxanthine) was dissolved in 20:80 v/v mixture of Alkamuls EL-620 (Rhodia Inc., Cranbury, N.J., USA) and phosphate buffered saline. The D2 antagonist, eticlopride, was dissolved in saline. Drugs were administered in a 1 ml/kg volume except for the group tested with 5, 7 and 20 mg/kg DMPX, in which the injection volume was 2 ml/kg as the highest DMPX soluble concentration achieved was 10 mg/ml. Drugs were prepared fresh every treatment day.
EtOH operant self-administration was carried out in standard operant chambers (Med Associates, Georgia, Vt.) housed in sound-attenuated cubicles. Each chamber (33×30.5×33 cm) contained two retractable levers against the right wall, 7 cm from the floor and 1 cm from the right or left edge of the right wall, respectively. One recessed dish positioned at 2.5 cm above floor level and 6 cm from the levers towards the center of the chamber was the reinforcer receptacle. Fluid (0.1 ml) was delivered from syringe pumps upon activation of 1 of the 2 retractable response levers. A 3 sec tone was activated upon lever pressing. […] The beginning of a training session was signaled by the onset of the house light located in the center of the wall facing the levers, at 27.2 cm above the floor. A computer controlled stimulus and fluid delivery and recorded operant responses.
Before the beginning of EtOH operant self-administration, rats were exposed to a 10% EtOH (1OE) solution as the only liquid source in their home cages for 4 days. For the next 14 days, animals were allowed free choice between 10E in tap water or tap water from graded glass tubes. At the end of this 14-day period, operant self-administration was initiated according to the sucrose fading technique (Samson, 1986) with minor modifications. Rats were restricted to 30 minutes of water per day for 2 consecutive days. On the night of the second day of water restriction, rats were placed in the operant chambers for a 12-15 hrs overnight session on an FR1 schedule (1 reinforcement of 0.1 ml per lever press) with 10% sucrose (10S) as reinforcer and both levers active. The next day, rats began the operant self-administration training. Animals were kept on water restriction for the next 4-5 days during which they received one 45 min session per day on an FR1 schedule with 10S as reinforcer and one active lever. They were then given free water in their home cages for the remainder of the experiment and were trained for 2-3 more of the above described sessions. The next day, sessions were shortened to 30 minutes and the ratio of responding was increased to FR3. EtOH was added to the sweet solution (10S10E) and rats received 3-4 sessions of this solution, followed by at least 20 sessions with 10E only. A minimum average of 0.3 g/kg EtOH consumption in 8 sessions prior to the beginning of any drug treatment was required. […]

[1] = Highest soluble concentration of DMPX in the injection vehicle; format: physicochemical; conditions: saline or isotonic; dissolved in warm saline; read-out: highest DMPX soluble concentration achieved
Method: as §1

[2] = DPCPX 0.125, 0.25, or 0.5 mg/kg ip, ANOVA NS
[3] = DMPX 1 mg/kg ip, vs saline, p<0.03
[4] = DMPX 10 mg/kg ip, vs saline, p<0.02
[5] = DMPX 20 mg/kg ip, vs saline, p<0.05

For `CCc1cc(Cl)c(OC)c(C(=O)NC[C@@H]2CCCN2CC)c1O` [eticlopride], the “any of the analyzed measurements (lever presses, reinforcements, g/kg EtOH)” value (Male Long Evans rats; eticlopride 0.005 mg/kg sc, vs saline) was “did not significantly affect”, the “number of lever presses” value (Male Long Evans rats; eticlopride 0.007 mg/kg sc, vs saline, decrease, p<0.005) was “significant effects” and the “g/kg of EtOH consumption” value (Male Long Evans rats; eticlopride 0.007 mg/kg sc, vs saline, decrease, p<0.01) was “significant effects”. The number of reinforcements (Male Long Evans rats; eticlopride 0.007 mg/kg sc, vs saline, decrease, p<0.02) was “significant effects”, the “number of lever presses” value (Male Long Evans rats; eticlopride 0.01 mg/kg sc, vs saline, decrease, p<0.0001) was “significant effects” and the “g/kg of EtOH consumption” value (Male Long Evans rats; eticlopride 0.01 mg/kg sc, vs saline, decrease, p<0.004) was “significant effects”. For the same molecule, the number of reinforcements (Male Long Evans rats; eticlopride 0.01 mg/kg sc, vs saline, decrease, p<0.007) was “significant effects”, the “EtOH self-administration, effect across doses” value (Male Long Evans rats; eticlopride 0.005-0.01 mg/kg sc) was “dose-dependently decreased” and the “EtOH self-administration, effect across doses” value (Male Long Evans rats; eticlopride 0.005-0.01 mg/kg sc, listed as Eticlopride) was “dose-dependently reduced”.

For `CCCn1c(=O)c2[nH]c(C3CCCC3)nc2n(CCC)c1=O` [DPCPX, 8-Cyclopentyl-1,3-dipropylxanthine], the “g/kg of EtOH consumption” value (Male Long Evans rats; [2]) was “no effect”, the “number of EtOH reinforcements” value (Male Long Evans rats; [2]) was “no effect” and the “number of lever presses” value (Male Long Evans rats; [2]) was “no effect”. For the same molecule, the “EtOH self-administration, effect across doses” value (Male Long Evans rats; DPCPX 0.125-0.5 mg/kg ip) was “without effect; also recorded: did not affect”.

In the case of `C#CCn1c(=O)c2c(ncn2C)n(C)c1=O` [DMPX, 3,7-Dimethyl-1-propargylxanthine], the “number of lever presses” value (Male Long Evans rats; DMPX 1 mg/kg ip, vs saline, p<0.02) is reported as “significantly increased”, the “g/kg of EtOH intake” value (Male Long Evans rats; [3]) is reported as “significantly increased” and the “number of EtOH reinforcements” value (Male Long Evans rats; [3]) is reported as “significantly increased”. For the same molecule, the “any of the measures (lever presses, EtOH reinforcements, g/kg EtOH)” value (shortened to “any of the measures”) (Male Long Evans rats; DMPX 3 mg/kg ip, vs saline) was “did not significantly affect”, the “any of the measures” value (Male Long Evans rats; DMPX 5 mg/kg ip, vs saline) was “did not significantly affect” and the “any of the measures” value (Male Long Evans rats; DMPX 7 mg/kg ip, vs saline) was “did not significantly affect”. For the same molecule, the “g/kg of EtOH consumption” value (Male Long Evans rats; [4]) was “significantly decreased”, the “number of lever presses” value (Male Long Evans rats; [4]) was “significantly decreased” and the “number of EtOH reinforcements” value (Male Long Evans rats; DMPX 10 mg/kg ip, vs saline, p<0.03) was “significantly decreased”. For the same molecule, the “g/kg EtOH intake” value (Male Long Evans rats; [5]) was “decreased”, the “number EtOH reinforcements” value (Male Long Evans rats; [5]) was “significant effect” and the “EtOH self-administration, dose-effect function” value (Male Long Evans rats; DMPX 1-20 mg/kg ip) was “bimodal effect”. It also gave a solubility [1] of 10000 µg/mL (≈ 45.8 mM).
